According to patent US7893284B2 (Sterix Limited, priority 2004, dated 2011):
Like-named read-outs stand apart in the source and are kept apart here.

Columns and labels:
MCF-7 cells = test: Cell proliferation, microtiter plate assay (Cell Titer 96), MCF-7; type: cell-based
Experimental: The effect of drugs on the proliferation of cells was measured using a microtiter plate assay (Cell Titer 96 proliferation assay, Promega, Hampshire, UK).

Tubulin = test: Inhibition of taxol-induced microtubule polymerization (turbidity at 350 nm); type: biochemical; settings: 20 μM, tubulin 1 mg/ml, FIG. 3
Experimental: The ability of drugs to inhibit taxol-induced polymerisation of tubulin was measured by turbidity at 350 nm. Tubulin (Cryoskeleton Inc., Denver, Colo.), at a final concentration of 1 mg/ml was incubated at 32° C. in G-PEM buffer [80 mM piperazine-N,N′-bis (2-ethane sulfonic acid) sequisodium salt, 1 mM MgCl2, 1 mM EGTA and 1 mM GTP (pH 6.8)] in the presence of taxol with or without estrone derivatives [20 μM].
STX641 is thought to act as an anti-microtubule agent, i.e. to disrupt microtubule function. To show this, tubulin was incubated in the presence of taxol (a compound known to promote tubulin polymerisation). Taxol induced efficient in vitro microtubule assembly as reflected in the increase in turbidity as measured at 350 nm.

[1] = test system: MCF-7 Breast Cancer Cells; test: Flow cytometric cell cycle analysis, MCF-7; type: cell-based; settings: 500 nM
Experimental: Flow cytometric cell cycle analysis was performed on 40% confluent populations of MCF-7s with 500 nM of compound.

[2] = test system: human umbilical vein endothelial cells (HUVECs); test: Tubule formation, Angiogenesis kit, co-culture of HUVECs and dermal fibroblasts; type: cell-based; settings: 0.05 μM and 0.1 μM, FIG. 7
Experimental: The effects of drugs on tubule formation (measured as a marker of their anti-angiogenic potential) was assessed using an Angiogenesis kit (TCS-Cellworks Ltd (Bucks, UK). For this, human umbilical vein endothelial cells (HUVECs) were cultured in a 24-well plate within a matrix of human diploid fibroblasts of dermal origin. The co-cultured cells were incubated throughout the experiment at 37° C. under 5% CO2 in a humidified incubator. On day 1, the culture medium was removed and replaced with medium containing the drugs under investigation. On days 4, 7 and 9, the medium was replaced with fresh medium containing the drugs under investigation. On day 11, the cells were washed with PBS and 70% ethanol (1 ml) added to each well for 30 min to fix the cells. After fixation, the cells were washed with blocking buffer (1 ml PBS+1% bovine serum albumin, Sigma, UK) and stained with either von Willebrand's factor or CD31. The extent of tubule formation was quantified by manual scoring or by computer analysis. Images were captured using a Kodak DC120 digital camera. In addition, details of changes in tubule formation induced by drugs were also recorded by high definition scanning of plates with some of the scans being presented as Photoshop processed images.
In this assay, the ability of STX641 (and related compounds) to act as an inhibitor of angiogenesis was examined using a co-culture of HUVECs and dermal fibroblasts. In this system, the endothelial cells initially form small islands within the fibroblast matrix. They subsequently proliferate and enter a migratory phase during which they move through the matrix to form thread-like tubule structures. These coalesce to form a network of anastomosing tubules. In FIG. 5, for untreated (control) co-cultures of HUVECs and dermal fibroblasts, the thread-like nature of the extensive tubule network is clearly visible. […] In FIG. 6, plates have been recorded by high definition scanning and also processed to give pixalated images.

[3] = target: T1, Placental Microsomal Steroid Sulphatase (Homo sapiens, UniProt P08842); test: Inhibition of steroid sulphatase activity in placental microsomes (Protocol 2); type: biochemical
T1 construct: Sulphatase-positive human placenta from normal term pregnancies are thoroughly minced with scissors; from tissue; host or cells: human term placenta (2000 g supernatant of homogenate)
T1 sequence (P08842 22-583): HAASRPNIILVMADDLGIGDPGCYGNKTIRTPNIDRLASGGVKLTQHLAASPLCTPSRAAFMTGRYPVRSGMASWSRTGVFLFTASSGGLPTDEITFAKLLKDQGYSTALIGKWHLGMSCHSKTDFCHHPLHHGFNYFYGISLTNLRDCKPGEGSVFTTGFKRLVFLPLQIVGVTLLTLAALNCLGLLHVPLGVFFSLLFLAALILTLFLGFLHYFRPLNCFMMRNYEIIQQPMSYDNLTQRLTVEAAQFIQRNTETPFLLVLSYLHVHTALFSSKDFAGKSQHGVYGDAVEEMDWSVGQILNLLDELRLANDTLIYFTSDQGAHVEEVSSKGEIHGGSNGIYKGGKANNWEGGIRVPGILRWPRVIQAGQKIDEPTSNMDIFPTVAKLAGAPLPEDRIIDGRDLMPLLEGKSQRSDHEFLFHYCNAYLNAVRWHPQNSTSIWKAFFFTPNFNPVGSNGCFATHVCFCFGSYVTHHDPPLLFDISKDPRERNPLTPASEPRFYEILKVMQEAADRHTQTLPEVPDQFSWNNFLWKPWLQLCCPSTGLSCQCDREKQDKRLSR
Experimental: Assay for Determining STS Activity Using Placental Microsomes (Protocol 2)
Inhibition of Steroid Sulphatase Activity in Placental Microsomes
Sulphatase-positive human placenta from normal term pregnancies are thoroughly minced with scissors and washed once with cold phosphate buffer (pH 7.4, 50 mM) then re-suspended in cold phosphate buffer (5 ml/g tissue). Homogenisation is accomplished with an Ultra-Turrax homogeniser, using three 10 second bursts separated by 2 minute cooling periods in ice. Nuclei and cell debris are removed by centrifuging (4° C.) at 2000 g for 30 minutes and portions (2 ml) of the supernatant are stored at […] The protein concentration of the supernatants is determined by the method of Bradford (Anal. Biochem., 72, 248-254 (1976)).
. The mixture is shaken thoroughly for 30 seconds with toluene (5 ml). Experiments have shown that >90% [14C]oestrone and <0.1% [3H]oestrone-3-sulphate is removed from the aqueous phase by this treatment. A portion (2 ml) of the organic phase was removed, evaporated and the 3H and 14C content of the residue determined by scintillation spectrometry. The mass of oestrone-3-sulphate hydrolysed is calculated from the 3H counts obtained (corrected for the volumes of the medium and organic phase used, and for recovery of [14C]oestrone added) and the specific activity of the substrate.

[4] = Homo sapiens, MCF7, read-out: IC50 in μM for the growth inhibition of MCF-7 cells
[5] = read-out: IC50 in μM for the growth inhibition of MCF-7 cells

| SMILES | IC50 (MCF-7 cells; [4]) [µM] | also measured |
| --- | --- | --- |
| CCOC(=O)/C=C1\CCC2C3CCc4cc(OS(N)(=O)=O)c(CC)cc4C3CC[C@]12C (stereo in doubt) [Compound 15, (2-Ethyl-13-methyl-3-sulfamoyloxy-6,7,8,9,11,12,13,14,15,16-decahydro-cyclopenta[a]phenanthren-17-ylidene)-acetic acid ethyl ester] | 1.85 |  |
| CCOC(=O)C[C@H]1CCC2C3CCc4cc(O)c(CC)cc4C3CC[C@@]21C (stereo in doubt) [Compound 22, (2-Ethyl-3-hydroxy-13-methyl-7,8,9,11,12,13,14,15,16,17-decahydro-6H-cyclopenta[a]phenanthren-17-yl)-acetic acid ethyl ester] | 26.4 |  |
| CCOC(=O)C[C@H]1CCC2C3CCc4cc(OS(N)(=O)=O)c(CC)cc4C3CC[C@@]21C (stereo in doubt) [Compound 23, (2-Ethyl-13-methyl-3-sulfamoyloxy-7,8,9,11,12,13,14,15,16,17-decahydro-6H-cyclopenta[a]phenanthren-17-yl)-acetic acid ethyl ester] | 4.19 |  |
| CCc1cc2c(cc1O)CCC1C2CC[C@@]2(C)C1CC[C@@H]2CC#N (stereo in doubt) [Compound 27, (2-Ethyl-3-hydroxy-13-methyl-7,8,9,11,12,13,14,15,16,17-decahydro-6H-cyclopenta[a]phenanthren-17-yl)-acetonitrile] |  | inhibition of taxol-induced polymerisation of tubulin (Tubulin): effectively blocked tubulin assembly |
| COc1cc2c(cc1O)CCC1C2CC[C@@]2(C)C1CC[C@@H]2CC#N (stereo in doubt) [Compound 32, (3-Hydroxy-2-methoxy-13-methyl-7,8,9,11,12,13,14,15,16,17-decahydro-6H-cyclopenta[a]phenanthren-17-yl)-acetonitrile] | 0.3 | inhibition of taxol-induced polymerisation of tubulin (Tubulin): effectively blocked tubulin assembly; G2/M arrest (cells in G2/M) ([1]; 8 h, control 16%): 27%; cells G2/M arrested ([1]; 24 h, control 28%): 18% |
| CCOC(=O)/C=C1/CCC2C3CCc4cc(O)c(CC)cc4C3CC[C@]12C (some centres unmarked) [Compound 14a, Z- and E-(2-Ethyl-3-hydroxy-13-methyl-6,7,8,9,11,12,13,14,15,16-decahydro-cyclopenta[a]phenanthren-17-ylidene)acetic acid ethyl ester] | 30.6 |  |
| CCOC(=O)/C=C1\CCC2C3CCc4cc(O)c(CC)cc4C3CC[C@]12C (some centres unmarked) [Compound 14b, Z- and E-(2-Ethyl-3-hydroxy-13-methyl-6,7,8,9,11,12,13,14,15,16-decahydro-cyclopenta[a]phenanthren-17-ylidene)acetic acid ethyl ester] | 31.1 |  |
| CCc1cc2c(cc1O)CCC1C2CC[C@]2(C)/C(=C\CO)CCC12 (some centres unmarked) [Compound 17a, Z- and E-2-Ethyl-17-(2-hydroxy-ethylidene)-13-methyl-7,8,9,11,12,13,14,15,16,17-decahydro-6H-cyclopenta[a]phenanthren-3-ol] | 0.67 |  |
| CCc1cc2c(cc1O)CCC1C2CC[C@]2(C)/C(=C/CO)CCC12 (some centres unmarked) [Compound 17b, Z- and E-2-Ethyl-17-(2-hydroxy-ethylidene)-13-methyl-7,8,9,11,12,13,14,15,16,17-decahydro-6H-cyclopenta[a]phenanthren-3-ol] | 0.77 |  |
| CCc1cc2c(cc1O)CCC1C2CC[C@@]2(C)C1CC[C@@H]2CCO (some centres unmarked) [Compound 19, 2-Ethyl-17-(2-hydroxy-ethyl)-13-methyl-7,8,9,11,12,13,14,15,16,17-decahydro-6H-cyclopenta[a]phenanthren-3-ol] | 2.52 |  |
| CCc1cc2c(cc1OS(N)(=O)=O)CCC1C2CC[C@@]2(C)C1CC[C@@H]2CCOS(N)(=O)=O (some centres unmarked) [Compound 20, Sulfamic acid 2-ethyl-13-methyl-17-(2-sulfamoyloxy-ethyl)-7,8,9,11,12,13,14,15,16,17-decahydro-6H-cyclopenta[a]phenanthren-3-yl ester] | 5.64 |  |
| CCc1cc2c(cc1O)CCC1C2CC[C@@]2(C)C1CC[C@@H]2CC#N (some centres unmarked) [Compound 27, (2-Ethyl-3-hydroxy-13-methyl-7,8,9,11,12,13,14,15,16,17-decahydro-6H-cyclopenta[a]phenanthren-17-yl)-acetonitrile] | 3.24 |  |
| CCc1cc2c(cc1OS(N)(=O)=O)CCC1C2CC[C@@]2(C)C1CC[C@@H]2CC#N (some centres unmarked) [Compound 28, Sulfamic acid 17-cyanomethyl-2-ethyl-13-methyl-7,8,9,11,12,13,14,15,16,17-decahydro-6H-cyclopenta[a]phenanthren-3-yl ester] |  | inhibition of taxol-induced polymerisation of tubulin (Tubulin): effectively blocked tubulin assembly; inhibition of tubule formation quantified by computer analysis [2]: completely inhibited tubule formation |
| COc1cc2c(cc1O)CCC1C2CCC2(C)C(=CC#N)CCC12 (centres unmarked) [Compound 30, Z- and E-(3-Hydroxy-2-methoxy-13-methyl-6,7,8,9,11,12,13,14,15,16-decahydro-cyclopenta[a]phenanthren-17-ylidene)-acetonitrile] |  | IC50 (MCF-7 cells; [5]): 3.22 µM |
| COc1cc2c(cc1O)CCC1C2CC[C@@]2(C)C1CC[C@@H]2NCCN(C)C (some centres unmarked) [Compound 36, 17-(2-Dimethylamino-ethylamino)-2-methoxy-13-methyl-7,8,9,11,12,13,14,15,16,17-decahydro-6H-cyclopenta[a]phenanthren-3-ol] | 3.25 |  |
| COCCOC1CCC2C3CCc4cc(O)c(OC)cc4C3CCC12C (centres unmarked) [Compound 51, 2-Methoxy-17-(2-methoxy-ethoxy)-13-methyl-7,8,9,11,12,13,14,15,16,17-decahydro-6H-cyclopenta[a]phenanthren-3-ol] | 6.02 |  |
| CCc1cc2c(cc1O)CC[C@@H]1[C@@H]2CC[C@]2(C)[C@@H](OS(C)(=O)=O)CC[C@@H]12 [Compound 59, 2-Ethyl-17-O-mesyl estradiol] |  | IC50 (MCF-7 cells; [5]): 5.58 µM |
| CCc1cc2c(cc1OS(N)(=O)=O)CC[C@@H]1[C@@H]2CC[C@]2(C)[C@@H](OS(C)(=O)=O)CC[C@@H]12 [Compound 60, 2-Ethyl-3-O-sulfamoyl-17-O-mesyl estradiol] | 0.09 | IC50 [3]: > 10 µM |
